These results are taken from ChEMBL document CHEMBL4422676, “Fragment-based screening of programmed death ligand 1 (PD-L1)” (Bioorg Med Chem Lett, 2019).

Some results are limits rather than exact numbers.

Test [1] relates to Programmed cell death 1 ligand 1 (Homo sapiens), Q9NZQ7 [UNDEFINED MUTATION]. The test is described as follows: Displacement of 15N-labelled PD1 from human 15N-labelled 6His-tagged PDL1 IgV domain H140E mutant (18 to 134 residues) at 800 uM assessed as rescue signal intensity by HMQC spectra analysis.
Sequence of Programmed cell death 1 ligand 1 (Homo sapiens), Q9NZQ7 [UNDEFINED MUTATION] (Q9NZQ7 whole entry, looked up, stated change not applied, the tested form may be a part): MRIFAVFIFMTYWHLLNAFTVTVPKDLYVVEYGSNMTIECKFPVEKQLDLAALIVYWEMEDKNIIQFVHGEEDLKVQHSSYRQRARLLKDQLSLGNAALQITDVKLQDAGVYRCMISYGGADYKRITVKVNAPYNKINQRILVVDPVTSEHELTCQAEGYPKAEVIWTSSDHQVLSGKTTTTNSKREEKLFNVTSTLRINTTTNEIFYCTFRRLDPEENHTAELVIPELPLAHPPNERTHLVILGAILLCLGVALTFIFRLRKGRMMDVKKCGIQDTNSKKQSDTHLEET
The target of test [2] is Programmed cell death 1 ligand 1 (Homo sapiens, UniProt Q9NZQ7, H140E). As to the kind of experiment: Binding affinity to human 15N-labelled 6His-tagged PDL1 IgV domain H140E mutant (18 to 134 residues) expressed in Escherichia coli BL21 (DE3) by 1D-1H NMR spectroscopy.
Sequence of Programmed cell death 1 ligand 1 (Q9NZQ7 whole entry, looked up, stated change not applied, the tested form may be a part): as above
For test [3], the system named is Programmed cell death 1 ligand 1 (Homo sapiens), Q9NZQ7 [UNDEFINED MUTATION]. As to the kind of experiment: Displacement of 15N-labelled PD1 from human 15N-labelled 6His-tagged PDL1 IgV domain H140E mutant (18 to 134 residues) at 2 mM assessed as rescue signal intensity by HMQC spectra analysis.

For orientation: Kd means the constant that tells how readily two partners part at equilibrium. Consider `CCN(CC)C(=O)c1sc2ccccc2c1Cl`, for which the Activity in test [1] was > 15%. The Kd in test [2] (read-out: Kd) was 2500 µM.

Turning to `CNCc1ccc(-c2cc(Cl)cc(Cl)c2)o1`, the Activity in test [1] was > 15%. The Kd in test [2] (read-out: Kd) stood at 1900 µM.

On to `Cc1cc(Nc2ccc(N3CCCC3)cc2)ncn1`, for which, in test [1], the Activity is 1 to 15%. For the same compound, the Kd in test [2] (read-out: Kd) is 3000 µM.

Consider `Oc1ncnc2scc(-c3ccccc3)c12`, for which the values for the Activity in test [1] and in test [3] were > 15% and 75%, respectively. Also, in test [2], the Kd entry is reported as “Nd(Insoluble)”.

In the case of `Cc1nc2cc(-c3ccccc3)ccc2o1`, the Activity in test [1] fell in the range of 1 to 15%. In test [2], the equilibrium dissociation constant (Kd) entry is on record as “Nd(Insoluble)”.

On to `CC(=O)Oc1ccc2c(c1)cc(C)n2C`, for which the Activity in test [1] is > 15%. In test [2], the Kd entry was “Nd(Insoluble)”.

Regarding `COc1ccc2nc(NCc3cccnc3)sc2c1`, the Activity in test [1] was in the range of 1 to 15%. In addition, the Kd in test [2] (read-out: Kd) was found to be 2900 µM.

For the compound `Cc1sc(N)nc1-c1ccc2c(c1)OCCO2`, the Activity in test [1] is > 15%. Besides, the dissociation constant (Kd) in test [2] (read-out: Kd) was 1200 µM.

For the compound `COC(=O)c1[nH]cc(-c2ccccc2F)c1N`, the Activity in test [1] lay within 1 to 15%. The Kd entry in test [2] was “Nd(Insoluble)”.
